Like-named read-outs stand apart in the source and are kept apart here. No end group written: not given here.
Key:
[1] = test system: Leishmania donovani axenic amastigotes
Description: We utilized a previously developed high-throughput screening assay using transgenic axenic amastigotes expressing a red fluorescent protein, mCherry. Changes in mCherry fluorescence were normalized to 50 μM miltefosine in order to quantify parasite inhibition ([52]). In total, 5 scaffold 25-mer peptides and 475 synthetic 25-mer peptide variants were screened (Fig. 1). […] The assay was repeated, and the average percent parasite killing was determined.
Axenic amastigotes were differentiated as described previously ([69]).
Axenic amastigotes were differentiated as described previously ([69]); briefly, transgenic L. donovani promastigotes expressing mCherry were differentiated by pH and temperature shifts. Amastigotes were seeded into 96-well plates at 5 × 10^6 cells/mL and incubated for 48 h in the presence of decreasing drug concentrations, starting at 20 μM, along with the appropriate solvent controls. Fluorescence was monitored (587-nm excitation/610-nm emission) over 48 h using a FlexStation 3 benchtop multimode reader (Molecular Devices). […] Thus, changes in mCherry fluorescence were normalized to the 50 μM miltefosine control in order to quantify parasite inhibition. Each assay was performed in triplicate. The IC50 values were calculated by nonlinear regression analysis using GraphPad Prism 9.0 for Windows.

THP-1 macrophages = assay: Cytotoxicity against THP-1 macrophages (CellTiter-Blue); type: cell-based, human
Description: THP-1 (human acute monocytic leukemia-derived) host macrophages were cultured in RPMI 1640 supplemented with 10% FCS and a penicillin-streptomycin antibiotic solution (10,000 U/mL penicillin, 10,000 μg/mL streptomycin) at 37°C with 5% CO2. THP-1 cells were incubated with 0.25 μM phorbol 12-myristate […] (PMA) for 48 h to differentiate into mature macrophages. Differentiated macrophages were seeded into 96-well plates at 5 × 10^6 cells/mL and incubated for 48 h in the presence of 20 μM antimicrobial peptides along with the appropriate solvent controls. Cell viability assays were conducted using CellTiter-Blue (Promega), based on resazurin reduction. After the 48-h incubation period, CellTiter-Blue reagent was added to cells for 4 h at 37°C, and fluorescence was measured (555-nm excitation/580-nm emission) using a FlexStation 3 benchtop multimode reader (Molecular Devices). Each assay was performed in triplicate. The CC50 values were calculated by nonlinear regression analysis using GraphPad Prism 9.0 for Windows.

[2] = read-out: Axenic amastigotes Mean IC50 ± SD
[3] = read-out: Axenic amastigotes Mean IC50 ± SD, L. donovani mCherry axenic amastigotes, 48 h, fluorescence normalized to 50 μM miltefosine, highest concentration 20 μM, mean of three replicates

| Sequence | IC50 [1, 2] | THP-1 macrophage CC50 (THP-1 macrophages) | IC50 [1, 3] | IC50 ([1]; 48 h) | THP-1 macrophage CC50 (THP-1 macrophages; 48 h) |
| --- | --- | --- | --- | --- | --- |
| AGANRLTKELLEYLRKFGKIWRKAW [Syn-xiamencin-40] | 1.31 µM | < 20 µM |  |  |  |
| AGANRLTKELLEYLRKFWKIARKAW [Syn-xiamencin-24] |  | < 20 µM | 1.63 µM |  |  |
| AGANRLWKELLEYLRKFGKIARKAW [Syn-xiamencin-48] | 2.18 µM | < 20 µM |  |  |  |
| AGAQRLTKELLEYLRKFGKIWRKAW [Syn-xiamencin-39] | 6.81 µM | < 20 µM |  |  |  |
| AGAQRLTKELLEYLRKFWKIARKAW [Syn-xiamencin-23] |  | < 20 µM | 1.14 µM |  |  |
| AGAQRLTLYLKEELRKRWKKAFIAW [Syn-xiamencin-18] |  | < 20 µM | 0.65 µM |  |  |
| AGAQRLWKELLEYLRKFGKIARKAW [Syn-xiamencin-47] | 2.68 µM | < 20 µM |  |  |  |
| AGKEKIRKKLKNEIKKKGRKAWIAW [Syn-safencin 72] |  | > 20 µM |  | 12.07 ± 0.09 µM | >20 µM |
| AGKEKIRKKLKNEIKKKGRKWVIAW [Syn-safencin-64] |  | < 20 µM | 0.33 µM |  |  |
| AGKEKIRKKLKNEWKKKGRKAVIAW [Syn-safencin-48] |  | < 20 µM | 1.75 µM |  |  |
| AGKEKIRKKWKNEIKKKGRKAVIAW [Syn-safencin-40] |  | < 20 µM | 2.12 µM |  |  |
| AGKEKIRQFLKKKIQEGKKRATIAW [Syn-larvacin-76] |  | < 20 µM | 1.58 µM |  |  |
| AGKEKIRQFLKKKIQEKGKRATIAW [Syn-larvacin-73] |  | < 20 µM | 0.39 µM |  |  |
| AGKEKIRQFLKKTIQEKGKRAKIAW [Syn-larvacin-77] |  | < 20 µM | 10.3 µM |  |  |
| AGKEKIRQYLKNEIKKKGRKAVWAW [Syn-safencin 77] |  | > 20 µM |  | 0.39 ± 0.13 µM | >20 µM |
| AGKEKIRQYLKNEIKKKGRKAWIAW [Syn-safencin-69] |  | < 20 µM | 3.37 µM |  |  |

| Sequence | IC50 [1, 2] | THP-1 macrophage CC50 (THP-1 macrophages) | IC50 [1, 3] | IC50 ([1]; 48 h) | THP-1 macrophage CC50 (THP-1 macrophages; 48 h) |
| --- | --- | --- | --- | --- | --- |
| AGKEKIRQYLKNEIKKKGRKWVIAW [Syn-safencin-61] |  | < 20 µM | 3.56 µM |  |  |
| AGKEKIRQYWKNEIKKKGRKAVIAW [Syn-safencin-37] |  | < 20 µM | 5.21 µM |  |  |
| AGKEKWRKKLKNEIKKKGRKAVIAW [Syn-safencin-32] |  | < 20 µM | 4.62 µM |  |  |
| AGKETIFQRLKKKIQEKGKRATIAW [Syn-larvacin-3] |  | below 20 μM | 0.36 µM |  |  |
| AGKETIFQRLKKKIQEKWKRATIAW [Syn-larvacin-43] |  | < 20 µM | 0.22 µM |  |  |
| AGKETIFWRLKKKIWEKGKRATIAW [Syn-larvacin-51] |  | < 20 µM | 0.42 µM |  |  |
| AGKETIRKYLKNEIKKKGRKAVIAW [Syn-safencin 6] |  | > 20 µM |  | 0.48 ± 0.07 µM | >20 µM |
| AGKETIRKYLKNEIKKKGRKAVWAW [Syn-safencin 78] |  | > 20 µM |  | 0.94 ± 0.14 µM | >20 µM |
| AGKETIRQFLKKKIQEGKKRATIAW [Syn-larvacin-4] |  | below 20 μM | 1.09 µM |  |  |
| AGKETIRQFLKKKIQEGKKRATIWW [Syn-larvacin-68] |  | < 20 µM | 1.31 µM |  |  |
| AGKETIRQFLKKKIQEKGKIAKRAW [Syn-larvacin-94] |  | < 20 µM | 18.2 µM |  |  |
| AGKETIRQFLKKKIQEKGKIATRWW [Syn-larvacin-70] |  | < 20 µM | 0.3 µM |  |  |
| AGKETIRQFLKKKIQEKGKRATIWW [Syn-larvacin-65] |  | < 20 µM | 0.31 µM |  |  |
| AGKETIRQFLKKKIQEKKKRATIAW [Syn-larvacin-81] |  | < 20 µM | 0.26 µM |  |  |
| AGKETIRQFLKKKIQEWKKRATIAW [Syn-larvacin-44] |  | < 20 µM | 0.47 µM |  |  |
| AGKETIRQFLKKRIQEKGKRAKIAW [Syn-larvacin-93] |  | < 20 µM | 2.46 µM |  |  |
